# Assay results reported in BindingDB's records for doi:10.1016/s0960-894x(00)00604-1 (Merck Research Laboratories, 2001).
# Biological target: Histone deacetylase (Eimeria tenella)
# Experiment: Inhibitory activity against histone deacetylase (HDAC) from partially purified extracts of Eimeria tenella protozoal cells
row,Structure (SMILES),IC50 [nM]
1,CCCCCCCC[C@@H]1NC(=O)[C@H]2CCCCN2CC(=O)[C@H]([C@@H](C)CC)NC(=O)[C@H](Cc2cn(OC)c3ccccc23)NC1=O,300
2,CCC(=O)CCCCC[C@@H]1NC(=O)[C@H]2CCCCN2CC(=O)[C@H]([C@@H](C)CC)NC(=S)[C@H](Cc2cn(OC)c3ccccc23)NC1=O,210
3,CC[C@H](C)[C@@H]1NC(=O)[C@H](Cc2cn(OC)c3ccccc23)NC(=O)[C@H](CCCCCP(=O)(OC)OC)NC(=O)[C@H]2CCCCN2CC1=O,850
4,CC[C@H](C)[C@@H]1NC(=O)[C@H](Cc2cn(OC)c3ccccc23)NC(=O)[C@H](CCCCCC(=O)C(C)O)NC(=O)[C@H]2CCCCN2CC1=O (some centres not stated),4
5,CC[C@H](C)[C@@H]1NC(=O)[C@H](Cc2cn(OC)c3ccccc23)NC(=O)[C@H](CCCCCC(=O)O)NC(=O)[C@H]2CCCCN2CC1=O,30

# These reach a lower IC50. Values come first.
row,IC50 [nM],Structure (SMILES)
1,1,CC[C@H](C)[C@@H]1NC(=O)[C@H](Cc2cn(OC)c3ccccc23)NC(=O)[C@H](CCCCCC(=O)C2CO2)NC(=O)[C@H]2CCCCN2CC1=O (some centres not stated)
2,0.8,CC[C@H](C)[C@@H]1NC(=O)[C@H](Cc2cn(OC)c3ccccc23)NC(=O)[C@H](CCCCCC(=O)OC)NC(=O)[C@H]2CCCCN2CC1=O
